Laboratory results published in US10933141B2, “Formulations with reduced degradation of polysorbate” (Genentech, Inc., priority 2015, dated 2021).

Tests used:
Lipoprotein Lipase (LPL) = assay: Enzymatic degradation of PS20 by LPL, PS20 by RP-ELSD; type: biochemical, Burkholderia sp.; conditions: 15% w/v HP-β-CD; 0.02% PS20, pH 5.5; 70 μg/mL LPL, 5 hours, room temperature
Description: (§1) Polysorbate concentration was determined using reverse phase ultra-performance liquid chromatography using evaporative light scattering detection (RP-ELSD). Samples were analyzed using an Agilent 1100 series high performance liquid chromatography system (HPLC) fitted with a Waters Oasis MAX cartridge column (20×2.1 mm, 30 μm particle size). The HPLC system was set up with a switching valve directing column flow-through to either waste or a Varian 380-LC evaporative light scattering detector set to 100° C. The mobile phases consisted of 2% formic acid in water (Pump A) and 2% formic acid in isopropanol (Pump B). […] In order to quantitate the PS20 concentration, a standard curve was generated by injecting 20 μL of solutions containing between 0% w/v and 0.4% w/v PS20. For excipients which affected the migration time of PS20 through the column, PS20 standard curve solutions containing the relevant excipient were included in the analysis to facilitate accurate quantitation.
(§2) The effect of 15% HP-β-CD on the enzymatic degradation of PS20 was measured. […]
(§3) PPL digestion was stopped by heat inactivation in an 85° C. water bath for 30 minutes. LPL and RLE digestion could not be stopped by heat inactivation, so the samples were analyzed immediately for PS20 content. […]

[1] = test system: Rabbit Liver Esterase (RLE); assay: Enzymatic degradation of PS20 by RLE, PS20 by RP-ELSD; type: biochemical; conditions: 15% w/v HP-β-CD; 0.02% PS20, pH 5.5; 15 μg/mL RLE, 5 hours, room temperature
Description: as §1, §2, §3

[2] = Solubilization of particles from oxidative PS20 degradation (HIAC); type: physicochemical; conditions: 5% and 15% (w/v) HP-β-CD; 0.02% (w/v) PS20 stored 27 months at 5° C.
Description: Subvisible particles were measured using a HIAC 9703 particle counter equipped with an HRDL-150 detector and a 1 mL syringe. Performance of the instrument was verified with NIST-traceable 2 μm Polystyrene bead standards at 3000 counts/mL before each measurement session. The HIAC instrument was configured to a 10 mL/min flow rate, 0.1 mL tare volume, and 0.4 mL sample volume. The samples were analyzed using 4 runs of 0.4 mL sips, with the first run of each sample was discarded to prevent measurement error due to sample carryover. Results were reported as the average values for 1.4, 2, 5, 10, 15, and 25, 50 μm analysis filter sizes.
Different concentrations of HP-β-CD were tested for their ability to solubilize particles produced as a result of oxidative PS20 degradation. Solutions of concentrated HP-β-CD were prepared in triplicate in pH 5.5 buffer. Protein-free samples containing 0.02% (w/v) PS20 were stored for 27 months at 5° C., resulting in oxidative PS20 degradation and the formation of visible and subvisible particles related to PS20 degradation products. Each degraded PS20 solution was divided into 3 aliquots and concentrated excipient was spiked into each the aliquots. […] The following day, subvisible particle counts were measured using a HIAC 9703 particle counter.

2-hydroxypropyl-β-cyclodextrin [HP-β-CD]
Polysorbate 20 (Relative %) (Lipoprotein Lipase (LPL)): 77.5%
Polysorbate 20 (Relative %) [1]: 62.7%
SVP relative to control sample (0% HP-β-CD) [2]: significant reduction in SVP
